Assay [1] concerns TFD-BSA antigen / IgG, IgM antibodies interaction. In words: Competition ELISA, inhibition of antibody interaction with TFD-BSA antigen. In kind it is binding, mice. As to conditions: for pIC50: antisera from BzlαTFD-Lys5-KLHs immunization; for Inhibitory effect in the interaction of TFD-BSA/antigen T-IgG/IgM antibodies: competition ELISA, TFD-BSA and antigen T, in words. The method, then: (§1) Target antigens (10 μg/ml) were adhered to multi-well plates of polystirene in saline phosphate buffer (PBS; 10 mM sodium phosphate, pH 7.2 and 150 mM NaCl) overnight at 4° C. Glycolipids were diluted in methanol and dried for 1 hour at 60° C. After covering the wells with the antigens, these were saturated with PBS-1% BSA-0.05% Tween 20 for 1 hour at 37° C. Serial dilutions of antiserum were incubates with the antigen for 2 hours at room temperature, and then washed 5 times with PBS. The adhered antigen-antibody complex was detected with a 1/1000 dilution of anti-IgG goat antibody or mouse IgM conjugated with peroxydase in PBS-0.05% Tween 20 (PBS-T), incubates at room temperature for 1 hour, and washed 5 times with PBS. Color reaction was developed as described for ELA.
(§2) The three antibodies showing highest anti-TFD and anti-antigen T levels were analyzed by competition ELISA, and results were averaged. Optimum antiserum dilutions with an optical density of 1.0 against TFD-BSA and T-MUC1 (10 μg/ml) as blanc antigen were determined in preliminary experiments. Competition ELISA stages were equal to those in ELISA, except in that optimal antiserum dilution was pre-incubated with several related antigens in carbohydrates for 1 hour at room temperature before being added to the wells. Minimum concentration of carbohydrates required for 50% inhibition (ID50) of antigen-antibody interaction is a more specific parameter.

Assay [2] deals with HT29 tumor cell / antibody interaction. In words: Competition ELISA of cells, inhibition of antibody interaction with HT29 tumor cells. It counts as cell-based, human. As to conditions: for Inhibitory effect relative to BzlαTFD, IgM mediated interaction: times less inhibitory effect than BzlαTFD; for Inhibitory effect, IgM mediated interaction: in words. On the procedure:
Level of antibodies against epithelial tumor cells was determined using lines HT29, MCF7, and T47D. Tumor cells were cultured to sub-comfluence in media recommended by ATCC, and harvested by treatment with trypsin. They were adsorbed to multi-well plates, fixed with cold methanol for […] and saturated with PBS-T for 1 hour at room temperature. ELISA of cells was carried out by incubating serial dilutions of mouse sera against the different tumor lines for 2 hours at room temperature in PBS, and then was washed 4 times with PBS-T. The adhered antigen-antibody complex was detected with a 1/1000 dilution of anti-IgG goat antibody or mouse IgM conjugated to a peroxidase in PBS-T, incubated for 1 hour at room temperature, and washed […] PBS-T. Color reaction was developed as described for ELA. Steps for competition ELISA of cells were the same as for ELISA of cells, except in that the optimum anti-sera dilution was pre-incubated with several antigens related to carbohydrates for 1 hour at room temperature prior to the addition to the plate wells.

Assay [3] relates to T-MUC1 antigen / IgG, IgM antibodies interaction. In words: Competition ELISA, inhibition of antibody interaction with T-MUC1 antigen. It counts as binding, mice. As to conditions: antisera from BzlαTFD-Lys5-KLHs immunization. On the procedure: as §1, §2
Setting [4] is: IgG, read-out: Concentration required to produce 50% inhibition (IC50), TFD-BSA antigen, IgG.
Setting [5] is: IgM, read-out: Concentration required to produce 50% inhibition (IC50), TFD-BSA antigen, IgM.
Where [6] appears, read: Homo sapiens, HT-29, HT29, IgG, read-out: Concentration requested to produce 50% inhibition (IC50), antibodies with HT29 tumor cell interaction, IgG.
Where [7] appears, read: Homo sapiens, HT-29, HT29, IgM, read-out: Concentration requested to produce 50% inhibition (IC50), antibodies with HT29 tumor cell interaction, IgM.
Setting [8] is: IgG, read-out: Concentration required to produce 50% inhibition (IC50), T-MUC1 antigen, IgG.
The mark [9] stands for this setting: IgM, read-out: Concentration required to produce 50% inhibition (IC50), T-MUC1 antigen, IgM.
The mark [10] stands for this setting: HT29, IgM, read-out: Concentration requested to produce 50% inhibition (IC50), antibodies with HT29 tumor cell interaction, IgM.
The mark [11] stands for this setting: HT29, IgG, read-out: Concentration requested to produce 50% inhibition (IC50), antibodies with HT29 tumor cell interaction, IgG.

pIC50: −log10 of the molar value. Like-named read-outs stand apart in the source and are kept apart here.

On to `CC(=O)NC1C(OCc2ccccc2)OC(CO)C(O)C1O` (centres unmarked) [BzlαGalNAc], for which the pIC50 was 2.30 in assay [1] (setting [4]); 3.00 in assay [1] (setting [5]); 2.10 in assay [2] (setting [6]); 2.10 in assay [2] (setting [7]); 1.70 in assay [3] (setting [8]); under 1.70 in assay [3] (setting [9]). The “Inhibitory effect in the interaction of TFD-BSA/antigen T-IgG/IgM antibodies” value in assay [1] is listed as “significant inhibition”. In assay [2] (HT29), the “Inhibitory effect relative to BzlαTFD, IgM mediated interaction” value (“Inhibitory effect relative to BzlαTFD” for short) is listed as 4 times.
Turning to `CC(=O)NC1C(OCc2ccccc2)OC(CO)C(O)C1OC1OC(CO)C(O)C(O)C1O` (centres unmarked) [BzlαTFD], the pIC50 in assay [1] (setting [4]) was 2.60; in assay [1] (setting [5]), 4.00; in assay [2] (setting [6]) it was 2.40; in assay [2] (setting [7]), 2.70; in assay [3] (setting [8]), 2.00; in assay [3] (setting [9]), under 2.00. In assay [1], the “Inhibitory effect in the interaction of TFD-BSA/antigen T-IgG/IgM antibodies” value is given as “significant inhibition”. In assay [2] (HT29), the “Inhibitory effect, IgM mediated interaction” value was “greatest inhibitors”.
With `CC(=O)NC1C(O)OC(CO)C(O)C1O` (centres unmarked) [GalNAc], the pIC50 is 1.70 in assay [1] (setting [4]); 1.52 in assay [1] (setting [5]); 1.70 in assay [2] (setting [10]); under 1.00 in assay [2] (setting [6]); under 1.00 in assay [3] (setting [8]); under 1.00 in assay [3] (setting [9]). Besides, the “Inhibitory effect relative to BzlαTFD” value in assay [2] (HT29) stood at 10 times.
For `OCC1OC(O)C(O)C(O)C1O` (centres unmarked) [Gal], in assay [2] (HT29), the “Inhibitory effect, IgM mediated interaction” value is reported as “did not show inhibitory effect”.
Regarding `CC(=O)NC1C(O)OC(CO)C(O)C1O` (centres unmarked) [GlcNAc], the pIC50 in assay [1] (setting [4]), in assay [1] (setting [5]), in assay [2] (setting [11]), in assay [2] (setting [10]), in assay [3] (setting [8]) and in assay [3] (setting [9]) was under 1.00 in each case. Moreover, in assay [1], the “Inhibitory effect in the interaction of TFD-BSA/antigen T-IgG/IgM antibodies” value is reported as “did not show any effect”. Further, in assay [2] (HT29), the “Inhibitory effect, IgM mediated interaction” value is given as “did not show inhibitory effect”.
Regarding `OCC1OC(O)C(O)C(O)C1O` (centres unmarked) [Glc], the pIC50 in assay [1] (setting [4]), in assay [1] (setting [5]), in assay [2] (setting [6]), in assay [2] (setting [7]), in assay [3] (setting [8]) and in assay [3] (setting [9]) was under 1.00 throughout. Moreover, the “Inhibitory effect in the interaction of TFD-BSA/antigen T-IgG/IgM antibodies” value in assay [1] is “did not show any effect”.
For the compound `CC(=O)N[C@@H]1[C@@H](O[C@@H]2O[C@H](CO)[C@H](O)[C@H](O)[C@H]2O)[C@@H](O)[C@@H](CO)O[C@@H]1O` [TFD, Galβ3GalNAcα], the pIC50 is 2.00 in assay [1] (setting [4]); 2.46 in assay [1] (setting [5]); under 2.00 in assay [2] (setting [11]); 2.10 in assay [2] (setting [10]); 1.70 in assay [3] (setting [8]); under 1.70 in assay [3] (setting [9]). The “Inhibitory effect in the interaction of TFD-BSA/antigen T-IgG/IgM antibodies” value in assay [1] is reported as “significant inhibition”. For the same compound, the “Inhibitory effect relative to BzlαTFD” value in assay [2] (HT29) was determined as 4 times.
For `CC(=O)N[C@H]1[C@@H](Oc2ccc([N+](=O)[O-])cc2)O[C@H](CO)[C@H](O)[C@@H]1O[C@@H]1O[C@H](CO)[C@H](O)[C@H](O)[C@H]1O` [pNPαTFD], the figures for the pIC50 in assay [2] (setting [11]) and in assay [2] (setting [10]) were under 2.00 and 2.70, respectively. In addition, the “Inhibitory effect, IgM mediated interaction” value in assay [2] (HT29) was “greatest inhibitors”.
